Experimental data published in PubChem BioAssay (NCI).
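Five concentrations, 48 hours, 96-well plates. Abbreviation: GI50, concentration required for 50% inhibition of growth. TGI denotes the concentration required for complete inhibition of growth.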

Experiments:
Assay in all cases: NCI-60 cell line screen, 48 h
[1] = test system: HL-60(TB) leukemia
[2] = test system: M14 melanoma
[3] = test system: SNB-19 CNS
[4] = test system: ACHN renal
[5] = test system: UACC-62 melanoma
[6] = test system: KM20L2 colon
[7] = test system: T-47D breast
[8] = test system: DU-145 prostate
[9] = test system: MDA-MB-231 breast
[10] = test system: MDA-N

| Structure (SMILES) | TGI [1] [µM] | TGI [2] [µM] | TGI [3] [µM] | TGI [4] [µM] | TGI [5] [µM] | TGI [6] [µM] | TGI [7] [µM] | GI50 [1] [µM] | TGI [8] [µM] | GI50 [2] [µM] | GI50 [4] [µM] | GI50 [5] [µM] | TGI [9] [µM] | TGI [10] [µM] |
| --- | --- | --- | --- | --- | --- | --- | --- | --- | --- | --- | --- | --- | --- | --- |
| FC(F)(F)c1nc(Br)[nH]c1C(F)(F)F | > 100 | > 100 | > 100 | > 100 | > 100 | > 100 |  |  |  |  |  |  |  |  |
| CCc1ccccc1NC(=O)C(=O)C(C#N)c1c(Cl)cccc1Cl (stereo not given) | > 100 | > 100 | > 100 | > 100 | > 100 | > 100 |  |  |  |  |  |  |  |  |
| O=c1[nH]c(=O)n(C2OC(CO)C(O)C2O)cc1F (stereo not given) | 26.3 | > 75.8 | > 100 | 21 | 7.56 | > 100 | > 100 | 0.025 | > 100 | 0.0819 | 0.0236 | 0.0515 | > 100 | > 70.5 |
| Cc1ccc(NC(=O)CCC(=O)C2Cc3ccccc3C2=O)cc1C (stereo not given) | > 100 | > 100 | > 100 | > 100 | > 100 | > 100 |  |  |  |  |  |  |  |  |
| O=C1CCc2ccc(O)c(c2)Oc2ccc(cc2)[C@@H]2O[C@@H]2CO1 | > 100 | > 100 | > 100 | > 100 | > 100 | > 100 |  |  |  |  |  |  |  |  |
| O=C(O)CCSC(=O)Nc1ccccc1 | > 100 | > 100 | > 100 | > 100 | > 100 | > 100 |  |  |  |  |  |  |  |  |
| CCOC(=O)CCn1cnc(N)n1 | > 100 | > 100 | > 100 | > 100 | > 100 | > 100 |  |  |  |  |  |  |  |  |
| C=C1C(C(=O)O)C1C(=O)O (stereo not given) | > 100 | > 100 | > 100 | > 100 | > 100 | > 100 |  |  |  |  |  |  |  |  |
| CSc1cc(C(C)(C)C)ccc1C(O)c1ccc(C(C)(C)C)cc1SC | 21.2 | 26.9 | 34.3 | 23.6 | 33.9 | 23.8 |  |  |  |  |  |  |  |  |
| C=CCC1C(=O)CC2(C)C(CC=C)C(=O)CC12C (stereo not given) | > 100 | > 100 | > 100 | > 100 | > 100 | > 100 |  |  |  |  |  |  |  |  |
| O=C(OCc1ccccc1)n1cccc1 | > 100 | > 100 | > 100 | > 100 | > 100 | > 100 |  |  |  |  |  |  |  |  |
| CCc1cccc(NC(=O)c2cc(/C=C/c3ccccc3)[nH]c(=S)n2)c1 | > 100 | > 100 | > 100 | > 100 | > 100 | > 100 |  |  |  |  |  |  |  |  |
